Laboratory results as given in patent US7675626B2, “Method of detecting drug resistant microorganisms by surface plasmon resonance system” (priority 2006, dated 2010).
Several values for one entry are separate records, joined by “and”; a condition that tells them apart may be missing. Equal values may be shown once.

Legend:
[1] = tested on: ampicillin susceptible strain (JM109); assay: SPR angle shift, ampicillin sensitivity test (susceptible strain); type: cell-based, E. coli; conditions: for susceptible surface plasmon resonance angle shift/resistant surface plasmon resonance angle shift: ratio susceptible/resistant strain
Source text: (§1) On setting up the surface plasmon resonance, a He—Ne laser (wavelength=632.8 nm) was used as the light source. The laser beam passed through the polarizer to block […], and only p-polarization component could excite surface plasmon. The transmitted p-polarization beam was split into two beams via beam splitter (BS), one beam was detected by photodiode as reference light, and the other beam injected into prism at specific range of angles to decide surface plasmon angle. The reflected light was detected via the photodiode in the opposite side of prism as signal light. Surface plasmon was excited on Au metal film deposited on flat glass surface which attached on prism via matching oil. The current signal detected by photodiode was expanded via amplifier and transformed into voltage signal via 16-bit A/D converter (Adventech PCI-1716) The Y-axial represented the ratio of reference light and signal light, X-axial represented the incident angle of interface between prism and sample. Incident angle was controlled by controller which motor motorized stage with two arms. When surface plasmon resonance angle was detected, the energy of injected light was absorbed and surface plasmon resonance was achieved. This experimental setup was build by National Cheng-Kung University, department of Engineering Science, Adaptic Photonic Lab.
(§2) The bacteria used herein were JM109 strain, which was recA1 mutation that helped ensure insert stability. EndA1 mutation improved the quality of the plasmid miniprep DNA. HsdR17 mutation prevented the cleavage of cloned DNA by an endogenous endonuclease system.
(§3) Penicillin was referred to β-lactam drugs because of the importance of the β-lactam ring. An intact ting structure was essential for antibacterial activity. The cleavage of the ring by penicillinase (β-lactamase) inactivated the drug. The antibiotic bacteria strain used herein was transformed by ampicillin resistant plasmid that translated β-lactamase to cleave the ring of ampicillin. The bacteria was picked out by loop and planted in 5 ml LB broth over night, then transferred into 100 ml LB and incubated for two hours.
(§4) Diluted Poly-L-Lysine solution with deionized water prior to coating slides. The flat glass surface deposited with Au metal film was immersed in poly-L-lysine solution (concentration is […]) for at least 24 hours to interact with Au metal film, cells can be immobilized on biochips after incubation.
(§5) The sterilized DI water was injected into the flow chamber for 30 min to stabilize the system when biochip coated with poly-L-lysine was assembled. After balancing, the incubated LA broth was injected into the flow chamber for 210 minutes to cover the AU metal film. Subsequently, antibiotic solution was injected, and the surface plasmon resonance curve was observed on the computer.
(§6) Surface plasmon resonance system measured SPR angle continuously, and compared SPR curve of antibiotic susceptible and antibiotic resistant strain under the same condition. The SPR curve of antibiotic resistant strain was depicted in FIG. 2, and antibiotic susceptible strain SPR curve was depicted in FIG. 3. Experimental data represented that after 30 minutes of balance of the SPR system, the injection of bacteria LB broth increased the SPR angle. After 210 minutes, the extra bacteria were washed with deionized water and presented the decrease of SPR angle, then balanced for 10-20 minutes. Antibiotic solution was injected after the balance curve. […]

[2] = tested on: ampicillin resistant strain (JM109 transformed by ampicillin resistant plasmid); assay: SPR angle shift, ampicillin resistance test (resistant strain); type: cell-based, E. coli
Source text: as §1, §2, §3, §4, §5, §6

`CC1(C)S[C@@H]2[C@H](NC(=O)[C@H](N)c3ccccc3)C(=O)N2[C@H]1C(=O)O` [ampicillin] was tested. Which “Ampicillin susceptible surface plasmon resonance angle shift” value ([1]; Average of 4 repeats) did it give?
The value was −0.0659.

And the “susceptible surface plasmon resonance angle shift/resistant surface plasmon resonance angle shift” value ([1]; Average of 4 repeats)?
The value was 2.377.

And the “susceptible surface plasmon resonance angle shift/resistant surface plasmon resonance angle shift” value ([1]; single repeat experiments)?
The value was 1.9834 and 2.6208 and 3.2312 and 1.6729.

What about the “drop of SPR angle” value ([1]; standard kinetic plot (FIG. 3), after injection of antibiotics) of the same molecule?
Its value is −0.06876 degree.

And the “drop of SPR angle” value ([1]; thirty minutes after antibiotic treatment (FIG. 5))?
The value was −0.01702 degree.

What about the “Ampicillin resistant surface plasmon resonance angle shift” value ([2]; Average of 4 repeats) of the same molecule?
Its value is −0.02935.

And the “drop of SPR angle” value ([2]; standard kinetic plot (FIG. 2), after injection of antibiotics)?
The value was −0.02128 degree.

What about the “drop of SPR angle of resistant strain compared to susceptible strain” value ([2]; standard kinetic plot (FIGS. 2, 3)) of the same molecule?
Its value is “approximately ⅓”.

What about the “drop of SPR angle of resistant strain compared to susceptible strain” value ([2]; thirty minutes after antibiotic treatment) of the same molecule?
Its value is “approximately ⅕”.

And the “drop of SPR angle” value ([2]; thirty minutes after antibiotic treatment (FIG. 4))?
The value was −0.00332 degree.
